In ChEMBL document CHEMBL5131434, “Design and synthesis of novel orexin 2 receptor agonists based on naphthalene skeleton” (Bioorg Med Chem Lett, 2022):

Legend:
[1] = target: T1, Orexin/Hypocretin receptor type 1 (Homo sapiens, UniProt O43613); assay: Antagonist activity at human OX1R expressed in CHO-K1 cells assessed as inhibition of orexin-A-induced increase in calcium mobilization preincubated for 15 mins followed orexin-A stimulation by Fura-2-AM dye based fluorescence assay
T1 sequence (O43613 whole entry): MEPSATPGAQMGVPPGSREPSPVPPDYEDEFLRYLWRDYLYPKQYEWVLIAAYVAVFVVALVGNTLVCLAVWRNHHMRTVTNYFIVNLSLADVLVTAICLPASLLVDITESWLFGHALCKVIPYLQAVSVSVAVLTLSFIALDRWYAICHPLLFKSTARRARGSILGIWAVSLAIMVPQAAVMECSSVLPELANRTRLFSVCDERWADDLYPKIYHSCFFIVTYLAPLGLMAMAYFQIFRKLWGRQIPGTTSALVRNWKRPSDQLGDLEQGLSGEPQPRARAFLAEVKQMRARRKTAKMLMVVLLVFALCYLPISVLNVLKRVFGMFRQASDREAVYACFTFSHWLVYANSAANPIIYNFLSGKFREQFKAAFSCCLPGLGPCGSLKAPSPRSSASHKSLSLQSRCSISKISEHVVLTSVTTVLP

[2] = target: T2, Orexin receptor type 2 (Homo sapiens) (UniProt O43614); assay: Agonist activity at OX2R (unknown origin) expressed in CHO cells at 10 uM by cell-based calcium assay relative to orexin A; type: functional
T2 sequence (whole entry): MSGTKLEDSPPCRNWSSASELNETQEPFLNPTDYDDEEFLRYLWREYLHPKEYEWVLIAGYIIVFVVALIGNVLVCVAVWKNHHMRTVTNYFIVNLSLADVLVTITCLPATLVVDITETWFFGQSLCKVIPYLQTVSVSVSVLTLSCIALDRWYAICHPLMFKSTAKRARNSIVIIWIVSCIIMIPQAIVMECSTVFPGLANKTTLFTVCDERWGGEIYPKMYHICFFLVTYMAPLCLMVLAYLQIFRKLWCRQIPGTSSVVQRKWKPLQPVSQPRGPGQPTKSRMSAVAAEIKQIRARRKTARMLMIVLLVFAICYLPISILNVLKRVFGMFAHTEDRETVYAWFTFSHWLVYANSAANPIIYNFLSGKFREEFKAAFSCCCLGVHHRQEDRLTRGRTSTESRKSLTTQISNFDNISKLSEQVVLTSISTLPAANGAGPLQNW

[3] = target: T3, Orexin/Hypocretin receptor type 1 (Homo sapiens) (UniProt O43613); assay: Agonist activity at OX1R (unknown origin) expressed in CHO cells at 10 uM by cell-based calcium assay relative to Orexin A; type: functional
T3 sequence (whole entry): T1 sequence (O43613 whole entry)

[4] = target: T4, Orexin receptor type 2 (Homo sapiens, UniProt O43614); assay: Agonist activity at OX2R (unknown origin) expressed in CHO cells by cell-based calcium assay; type: functional
T4 sequence (O43614 whole entry): T2 sequence (whole entry)

[5] = target: T1, Orexin/Hypocretin receptor type 1; assay: Agonist activity at OX1R (unknown origin) expressed in CHO cells by cell-based calcium assay; type: functional
[6] = species on record: Homo sapiens; assay: Selectivity ratio of EC50 for agonist activity at human OX1R expressed in CHO-K1 cells to EC50 for agonist activity at human OX2R expressed in CHO-K1 cells; type: cell-based

| SMILES | Ki [1] | Efficacy [2] | Efficacy [3] | EC50 [4] | EC50 [5] | Ratio EC50 [6] |
| --- | --- | --- | --- | --- | --- | --- |
| COc1ccc(C(=O)Nc2cccc([C@]3(C)O[C@H]4CO[C@@H]5N4[C@H]3O[C@@]5(C)c3cccc(NC(=O)c4ccc(OC)cc4)c3)c2)cc1 | 0.00217 µM | – | – | – | – | – |
| COc1ccc(-c2cccc(C(=O)N(C)C)c2)cc1S(=O)(=O)Nc1ccc2ccc(N(C)C(=O)c3ccccc3)cc2c1 | – | < 5% | < 5% | > 10 µM | > 10 µM | – |
| COC(=O)N1CCC[C@H](NS(C)(=O)=O)[C@@H]1CO[C@H]1CC[C@@H](c2ccccc2)CC1 | – | – | – | – | – | > 5000 |
| COc1ccc(-c2cccc(C(=O)N(C)C)c2)cc1S(=O)(=O)Nc1ccc2ccc(NC(=O)c3ccccc3)cc2c1 | – | < 5% | < 5% | > 10 µM | > 10 µM | – |
| COc1ccc(C(=O)Nc2cccc([C@]3(C)O[C@@H]4CO[C@H]5N4[C@@H]3O[C@@]5(C)c3cccc(NC(=O)c4ccc(OC)cc4)c3)c2)cc1 | 0.00523 µM | – | – | – | – | – |
| COc1ccccc1C(=O)N(C)c1cccc2ccc(NS(=O)(=O)c3cc(-c4cccc(C(=O)N(C)C)c4)ccc3OC)cc12 | – | – | – | > 10 µM | > 10 µM | – |
